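Exposure lasted 48 hours, with cells grown in 96-well plates and compounds tested at five concentrations. GI50: concentration for 50% inhibition of growth. The concentration for full growth arrest is given as TGI.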
Tests used:
Test in all cases: NCI tumour cell line growth inhibition, 48 h
P388/ADR leukemia = tested on: P388/ADR leukemia
DLD-1 colon = tested on: DLD-1 colon
SN12K1 renal = tested on: SN12K1 renal
P388 leukemia = tested on: P388 leukemia
HOP-18 NSCLC = tested on: HOP-18 NSCLC
MDA-MB-435 = tested on: MDA-MB-435
LXFL 529 NSCLC = tested on: LXFL 529 NSCLC
RXF-631 renal = tested on: RXF-631 renal

| Structure (SMILES) | TGI (DLD-1 colon) | TGI (HOP-18 NSCLC) | TGI (MDA-MB-435) | TGI (LXFL 529 NSCLC) | also measured |
| --- | --- | --- | --- | --- | --- |
| O=C(O)/C=C/c1cnc[nH]1 | > 500 µM | > 500 µM | – | – | TGI (P388/ADR leukemia): > 500 µM; TGI (SN12K1 renal): > 500 µM; GI50 (P388 leukemia): > 500 µM; TGI (P388 leukemia): > 500 µM |
| O=C(O)c1cncc(C(=O)O)c1 | – | – | > 100 µM | – | – |
| CC(=O)[O-].[Ni].c1ccc(/C(=N\Nc2ccccn2)c2ccccn2)cc1 | 32.7 µM | > 100 µM | 22.4 µM | 16 µM | GI50 (HOP-18 NSCLC): 2.81 µM |
| COc1ccc2c[n+](C)c3c4cc(OC)c(OC)cc4ccc3c2c1 | 42.2 µM | > 96.1 µM | 28.4 µM | 12 µM | TGI (RXF-631 renal): 46.9 µM |
| NC(CCCNc1cccc(O)c1)C(=O)O (stereo not given) | > 100 µM | > 100 µM | – | > 100 µM | – |
| CCSc1nc(N2CCCCC2)c2cn[nH]c2n1 | – | – | 75.6 µM | – | GI50 (MDA-MB-435): 28.8 µM |
| Cn1c(=O)c2c(ncn2CCSS(=O)(=O)O)n(C)c1=O | – | – | > 100 µM | – | – |
| COc1cccc(C2C(C(=O)O)=C(CO)Oc3cc4c(cc32)OCO4)c1 (stereo not given) | > 100 µM | > 100 µM | – | > 100 µM | – |
| COc1ccc2c(c1)O[C@H]1c3ccc(O)cc3OC[C@@H]21 | > 100 µM | > 100 µM | – | 80.3 µM | TGI (RXF-631 renal): > 100 µM |
| CC(=O)NC(CCCCNC(=O)OC(C)(C)C)C(=O)O (stereo not given) | – | – | > 100 µM | – | – |
| C=C(CN(C)C)C(=O)c1cc(C)ccc1C | 7.47 µM | 11.6 µM | 22.1 µM | 5.42 µM | – |
| O=c1[nH]cc(N(CCCl)CCCl)c(=O)[nH]1 | 366 µM | 199 µM | 136 µM | 187 µM | TGI (P388/ADR leukemia): 70 µM; TGI (SN12K1 renal): 172 µM; TGI (P388 leukemia): 66.7 µM |
| O=NNc1cnccn1 | > 1250 µM | > 1250 µM | > 1250 µM | – | TGI (P388/ADR leukemia): > 1250 µM; TGI (SN12K1 renal): > 1250 µM; TGI (P388 leukemia): > 1250 µM |
| c1ccc(SC(Sc2ccccc2)c2ccc3c(c2)OCO3)cc1 | – | – | > 100 µM | – | – |
| CCOC(=O)C1(C(=O)OCC)CSC1 | – | – | > 100 µM | – | – |

— PubChem BioAssay (NCI)
